Experimental data as given in publication PMC8748916, “Microbial enzymes induce colitis by reactivating triclosan in the mouse gastrointestinal tract” (Nature Communications, 2022).
Several values for one entry are separate records, joined by “and”; a condition that tells them apart may be missing. Identical values can stand only once.

Columns and labels:
[1] = LC-MS/MS profiling of TCS metabolism in mice (TCS via diet for 4 weeks); settings: for concentration of TCS, TCS-G, TCS-Sulfate: individual mice
[2] = LC-MS/MS of TCS and its metabolites in human stool and urine after use of TCS-containing personal care products; format: in vivo; settings: for TCS metabolites in human stool / TCS metabolites in human urine: Treatment TCS, individual subjects; for average molar concentration ratio: TCS-exposed subjects;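 on Profile in stool (%): molar share of summed TCS plus TCS-G plus TCS-sulfate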;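 on Profile in urine (%): molar share of summed TCS plus TCS-G plus TCS-sulfate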;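 on average molar concentration ratio: molar share of summed TCS plus TCS-G plus TCS-sulfate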
Source text: To broaden our understanding of TCS metabolic profiles in the gut, we next analyzed TCS metabolism in human subjects. We utilized urine and stool samples from a previous study in which the recruited human subjects were first subjected to a washout period (no usage of TCS-containing products), then were randomly assigned to two groups that used personal care products like toothpaste with or without TCS for up to four months (see the scheme of the experiment in Fig. 1c)[15]. Previous data had established that humans are primarily exposed to TCS via toothpaste that provides a direct oral route to the gastrointestinal tract[16],[17].

[3] = system: enzymes extracted from human fecal samples; assay: In fimo assay (TCS-G turnover rate by human fecal extracts); format: biochemical; settings: Fig. 3c, replicates 1-3
Experimental: Fecal extracts were prepared and proteomic analysis was performed exactly as previously described. In total, 10 g of frozen human fecal sample was thawed and added to 25 mL extraction buffer (25 mM HEPES, 25 mM NaCl pH 6.5 with Roche Complete protease inhibitor tablet) and 0.5 g autoclaved garnet beads. The mixture was vortexed until homogenous and centrifuged at low speed (300 × g for 5 min at 4 °C). The supernatant was decanted. In all, 25 mL buffer was added to the pellet and the vortex and centrifugation steps repeated. The supernatants from these steps were then combined and centrifuged at low speed for two more cycles. The resultant supernatant was sonicated twice using 1 s pulses for 1.5 min and the lysate was centrifuged at 17,000 × g for 20 min in a Beckman Coulter J2-HC centrifuge. The decanted lysate was then washed with several exchanges of extraction buffer to remove metabolites and small molecules. Total protein concentration was quantitated using a Bradford assay. The fecal lysate was diluted to 1 mg/mL concentration and snap-frozen in small aliquots.
Reaction mixtures contained 5 µL fecal extract (0.1 mg/mL final), 30 µL TCS-G (200 µM final), and 15 µL assay buffer (25 mM HEPES, 25 mM NaCl, pH 6.5). Reactions were quenched at five time points with 50 µL 25% trichloroacetic acid. Samples were centrifuged 20 min at 16,000 × g in a tabletop centrifuge, and the supernatant was analyzed via the same HPLC method described for the catalytic efficiency assay. Reaction rates were determined by fitting progress curves using linear regression and are expressed as initial turnover rates (µM/s). Controls contained fecal extract that had been heat-killed at 95 °C for 5 min. Reported rates are the average of three biological replicates ±SEM.

[4] = treatment time 0 months (after washout)

O=S(=O)(O)Oc1cc(Cl)ccc1Oc1ccc(Cl)cc1Cl [TCS-sulfate, triclosan-sulfate]
concentration of TCS, TCS-G, TCS-Sulfate ([1]; Bile, 80 ppm TCS via diet 4 weeks): 93.62 pmol/mg and 49.05 pmol/mg and 43.31 pmol/mg and 67.29 pmol/mg | concentration of TCS, TCS-G, TCS-Sulfate ([1]; Cecum (digesta), 80 ppm TCS via diet 4 weeks): 0.12 pmol/mg and 0.13 pmol/mg and 0.09 pmol/mg and 0.35 pmol/mg and 0.29 pmol/mg and 0.53 pmol/mg and 0.56 pmol/mg and 0.38 pmol/mg and 0.61 pmol/mg and 0.54 pmol/mg | concentration of TCS, TCS-G, TCS-Sulfate ([1]; Cecum digesta, 1 ppm TCS in diet 4 weeks): 0 pmol/mg | concentration of TCS, TCS-G, TCS-Sulfate ([1]; Cecum digesta, 10 ppm TCS in diet 4 weeks): 0.02 pmol/mg and 0 pmol/mg and 0.01 pmol/mg | concentration of TCS, TCS-G, TCS-Sulfate ([1]; Cecum digesta, 80 ppm TCS in diet 4 weeks): 0.03 pmol/mg and 0.05 pmol/mg and 0.08 pmol/mg and 0.06 pmol/mg and 0.13 pmol/mg | concentration of TCS, TCS-G, TCS-Sulfate ([1]; Colon (digesta), 80 ppm TCS via diet 4 weeks): 1.16 pmol/mg and 1.00 pmol/mg and 1.32 pmol/mg and 1.31 pmol/mg and 2.15 pmol/mg and 0.67 pmol/mg and 0.75 pmol/mg and 2.57 pmol/mg and 1.48 pmol/mg and 2.39 pmol/mg | concentration of TCS, TCS-G, TCS-Sulfate ([1]; Colon digesta, 1 ppm TCS in diet 4 weeks): 0 pmol/mg | concentration of TCS, TCS-G, TCS-Sulfate ([1]; Colon digesta, 10 ppm TCS in diet 4 weeks): 0.2 pmol/mg and 0 pmol/mg and 0.03 pmol/mg and 0.01 pmol/mg and 0.05 pmol/mg and 0.02 pmol/mg | concentration of TCS, TCS-G, TCS-Sulfate ([1]; Colon digesta, 80 ppm TCS in diet 4 weeks): 0.3 pmol/mg and 0.21 pmol/mg and 0.1 pmol/mg and 0.13 pmol/mg and 0.22 pmol/mg and 0.09 pmol/mg and 0.81 pmol/mg and 0.37 pmol/mg | concentration of TCS, TCS-G, TCS-Sulfate ([1]; Feces, 1 ppm TCS in diet 4 weeks): 0.05 pmol/mg | concentration of TCS, TCS-G, TCS-Sulfate ([1]; Feces, 10 ppm TCS in diet 4 weeks): 0.1 pmol/mg and 0.16 pmol/mg | concentration of TCS, TCS-G, TCS-Sulfate ([1]; Feces, 80 ppm TCS in diet 4 weeks): 3.27 pmol/mg and 1.08 pmol/mg | Level in Cecum ([1]; Fig. S3b, Cecum, individual mice No. 1-10 per row): 0.53 and 0.56 and 0.38 and 0.61 and 0.54 and 0.12 and 0.13 and 0.09 and 0.35 and 0.29 | Level in Colon ([1]; Fig. S3b, Colon, individual mice No. 1-10 per row): 0.78 and 1.13 and 3.01 and 1.95 and 2.87 and 1.28 and 1 and 1.68 and 1.44 and 2.3 | Level in SI 1st section ([1]; Fig. S3b, SI 1st section, individual mice No. 1-10 per row): 7.35 and 7.33 and 7.48 and 7.82 and 9.31 and 9.27 and 9.71 and 4.38 and 7.68 and 8.04 | Level in SI 2nd section ([1]; Fig. S3b, SI 2nd section, individual mice No. 1-10 per row): 6.24 and 6.6 and 5.34 and 6.55 and 6.34 and 6.37 and 6.86 and 2.98 and 4.48 and 5.78 | Level in SI 3rd section ([1]; Fig. S3b, SI 3rd section, individual mice No. 1-10 per row): 5.62 and 5.7 and 3.67 and 5.46 and 7.7 and 5.86 and 4.93 and 2.15 and 4.34 and 5.06 | Level in SI 4th section ([1]; Fig. S3b, SI 4th section, individual mice No. 1-10 per row): 7.25 and 6.61 and 6.48 and 10.63 and 8.75 and 6.52 and 6.94 and 2.9 and 7.06 | concentration of TCS, TCS-G, TCS-Sulfate ([1]; Heart, 80 ppm TCS via diet 4 weeks): 10.90 pmol/mg and 8.11 pmol/mg and 9.20 pmol/mg and 10.24 pmol/mg | concentration of TCS, TCS-G, TCS-Sulfate ([1]; Liver, 80 ppm TCS via diet 4 weeks): 37.26 pmol/mg and 31.81 pmol/mg and 21.91 pmol/mg and 24.89 pmol/mg and 30.95 pmol/mg and 12.68 pmol/mg and 35.36 pmol/mg and 32.58 pmol/mg and 32.38 pmol/mg and 20.28 pmol/mg | concentration of TCS, TCS-G, TCS-Sulfate ([1]; SI 1st section (digesta), 80 ppm TCS via diet 4 weeks): 7.33 pmol/mg and 7.48 pmol/mg and 7.82 pmol/mg and 9.31 pmol/mg | concentration of TCS, TCS-G, TCS-Sulfate ([1]; SI 2nd section (digesta), 80 ppm TCS via diet 4 weeks): 6.37 pmol/mg and 6.86 pmol/mg and 2.98 pmol/mg and 4.48 pmol/mg and 5.78 pmol/mg and 6.24 pmol/mg and 6.60 pmol/mg and 5.34 pmol/mg and 6.55 pmol/mg and 6.34 pmol/mg | concentration of TCS, TCS-G, TCS-Sulfate ([1]; SI 3rd section (digesta), 80 ppm TCS via diet 4 weeks): 5.86 pmol/mg and 4.93 pmol/mg and 2.15 pmol/mg and 4.34 pmol/mg and 5.06 pmol/mg and 5.62 pmol/mg and 5.70 pmol/mg and 3.67 pmol/mg and 5.46 pmol/mg and 7.70 pmol/mg | concentration of TCS, TCS-G, TCS-Sulfate ([1]; SI 4th section (digesta), 80 ppm TCS via diet 4 weeks): 6.52 pmol/mg and 6.94 pmol/mg and 2.90 pmol/mg and 6.61 pmol/mg and 7.06 pmol/mg and 7.25 pmol/mg and 6.48 pmol/mg and 10.63 pmol/mg and 8.75 pmol/mg | share of TCS metabolites found ([1]; digesta of the 4th section of the mouse small intestine, 80 ppm TCS via diet 4 weeks): 7.7% | share of TCS metabolites found ([1]; fecal content, 80 ppm TCS via diet 4 weeks): 0.2% | Profile in urine (%) ([2]; TCS-exposed human subjects, n=7 urine samples): 0.04% | Profile in stool (%) ([2]; TCS-exposed human subjects, n=23 stool samples): 0.0365% | TCS metabolites in human stool [2, 4]: 0.311 pmol/ g stool and < LOD | TCS metabolites in human urine [2, 4]: 0.071 nM urine and < LOD (3×) | TCS metabolites in human stool ([2]; treatment time 1 month): 1.344 pmol/ g stool and < LOD (3×) and 0.342 pmol/ g stool and 0.381 pmol/ g stool | TCS metabolites in human urine ([2]; treatment time 1 month): 0.470 nM urine | TCS metabolites in human stool ([2]; treatment time 2 months): < LOD (4×) and 0.999 pmol/ g stool | TCS metabolites in human urine ([2]; treatment time 2 months): 0.522 nM urine | TCS metabolites in human stool ([2]; treatment time 3 months): 0.987 pmol/ g stool and < LOD (5×) | TCS metabolites in human urine ([2]; treatment time 3 months): 0.157 nM urine | TCS metabolites in human stool ([2]; treatment time 4 months): 0.971 pmol/ g stool and < LOD (4×) and 0.236 pmol/ g stool | TCS metabolites in human urine ([2]; treatment time 4 months): 0.257 nM urine and < LOD and 0.689 nM urine and 0.388 nM urine | average molar concentration ratio ([2]; human stool): 0.0% | average molar concentration ratio ([2]; human urine): 0.0%

O=C(O)[C@H]1OC(Oc2cc(Cl)ccc2Oc2ccc(Cl)cc2Cl)[C@H](O)[C@@H](O)[C@@H]1O (stereo partly shown) [TCSG]
TCSG turnover rate ([3]; human fecal extract sample F2): 0.0489 µM/s and 0.0506 µM/s and 0.0488 µM/s | TCSG turnover rate ([3]; human fecal extract sample F3): 0.0556 µM/s and 0.0559 µM/s and 0.0553 µM/s | TCSG turnover rate ([3]; human fecal extract sample F4): 0.036 µM/s and 0.0272 µM/s and 0.0271 µM/s | TCSG turnover rate ([3]; human fecal extract sample M1): 0.063 µM/s and 0.0659 µM/s and 0.0613 µM/s | TCSG turnover rate ([3]; human fecal extract sample M2): 0.0168 µM/s and 0.0179 µM/s and 0.0157 µM/s | TCSG turnover rate ([3]; human fecal extract sample M3): 0.0438 µM/s and 0.0439 µM/s and 0.0436 µM/s
